Where “and” joins values, the source holds several entries; their conditions need not be identical. Identical values can stand only once. Inconclusive results and toxic doses are left out. The calls were made as follows: active = survival T/C of 150% or more; inactive = T/C below 125% in these data.
Test system: P388 leukemia ip, CD2F1 mice, survival T/C
Assay: NCI In Vivo Anticancer Drug Screen. Data for tumor model P388 Leukemia (intraperitoneal) in CD2F1 (CDF1) mice
Details: endpoint: median survival time, higher = longer survival
In short: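 Mice carrying the transplanted tumor received test compound or vehicle. Survival was recorded in each group, and the value is the treated-group measurement divided by that of the vehicle-treated control group.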

[1] = dose: 50.0 mg/kg/injection, schedule: Q01DX005 (ip), vehicle: Klucel (hydroxypropylcellulose) (HPC)
[2] = dose: 100.0 mg/kg/injection, schedule: Q01DX005 (ip), vehicle: Klucel (hydroxypropylcellulose) (HPC)
[3] = dose: 200.0 mg/kg/injection, schedule: Q01DX005 (ip), vehicle: Klucel (hydroxypropylcellulose) (HPC)
[4] = dose: 50.0 mg/kg/injection, schedule: Q01DX009 (ip), vehicle: saline
[5] = dose: 100.0 mg/kg/injection, schedule: Q01DX009 (ip), vehicle: saline
[6] = dose: 200.0 mg/kg/injection, schedule: Q01DX009 (ip), vehicle: saline
[7] = dose: 50.0 mg/kg/injection, schedule: Q01DX009 (ip), vehicle: saline with Tween-80
[8] = dose: 100.0 mg/kg/injection, schedule: Q01DX009 (ip), vehicle: saline with Tween-80
[9] = dose: 200.0 mg/kg/injection, schedule: Q01DX009 (ip), vehicle: saline with Tween-80
[10] = dose: 400.0 mg/kg/injection, schedule: Q01DX009 (ip), vehicle: saline with Tween-80
[11] = dose: 60.0 mg/kg/injection, schedule: Q01DX005 (ip), vehicle: saline with Tween-80
[12] = dose: 120.0 mg/kg/injection, schedule: Q01DX005 (ip), vehicle: saline with Tween-80
[13] = dose: 240.0 mg/kg/injection, schedule: Q01DX005 (ip), vehicle: saline with Tween-80
[14] = dose: 100.0 mg/kg/injection, schedule: Q01DX001 (ip), vehicle: Klucel (hydroxypropylcellulose) (HPC)
[15] = dose: 200.0 mg/kg/injection, schedule: Q01DX001 (ip), vehicle: Klucel (hydroxypropylcellulose) (HPC)
[16] = dose: 400.0 mg/kg/injection, schedule: Q01DX001 (ip), vehicle: Klucel (hydroxypropylcellulose) (HPC)
[17] = dose: 12.5 mg/kg/injection, schedule: Q01DX005 (ip), vehicle: saline with Tween-80
[18] = dose: 25.0 mg/kg/injection, schedule: Q01DX005 (ip), vehicle: saline with Tween-80
[19] = dose: 50.0 mg/kg/injection, schedule: Q01DX005 (ip), vehicle: saline with Tween-80
[20] = dose: 100.0 mg/kg/injection, schedule: Q01DX005 (ip), vehicle: saline with Tween-80
[21] = dose: 200.0 mg/kg/injection, schedule: Q01DX005 (ip), vehicle: saline with Tween-80
[22] = dose: 12.5 mg/kg/injection, schedule: Q01DX009 (ip), vehicle: Klucel (hydroxypropylcellulose) (HPC)
[23] = dose: 50.0 mg/kg/injection, schedule: Q01DX009 (ip), vehicle: Klucel (hydroxypropylcellulose) (HPC)
[24] = dose: 100.0 mg/kg/injection, schedule: Q01DX009 (ip), vehicle: Klucel (hydroxypropylcellulose) (HPC)
[25] = dose: 200.0 mg/kg/injection, schedule: Q01DX009 (ip), vehicle: Klucel (hydroxypropylcellulose) (HPC)
[26] = dose: 15.0 mg/kg/injection, schedule: Q01DX005 (ip), vehicle: saline with Tween-80
[27] = dose: 30.0 mg/kg/injection, schedule: Q01DX005 (ip), vehicle: saline with Tween-80
[28] = dose: 25.0 mg/kg/injection, schedule: Q01DX009 (ip), vehicle: saline
[29] = dose: 25.0 mg/kg/injection, schedule: Q01DX009 (ip), vehicle: saline with Tween-80

Measured: T/C

O=C(Nc1ccccc1C1=NCCN1)c1ccc(C(=O)Nc2ccccc2C2=NCCN2)cc1
inactive: [1] 96 % of control | [2] 87 % of control | [3] 91 % of control

Cc1cnc(Sc2ncccc2[N+](=O)[O-])nc1
inactive: [4] 109 % of control | [5] 109 % of control | [6] 116 % of control

COc1cccc(/C=N/NC(=O)N/N=C/c2cccc(OC)c2O)c1O
inactive: [7] 92 % of control | [8] 100 % of control | [9] 101 % of control | [10] 95 % of control

COc1ccc2nc(C#N)sc2c1
inactive: [11] 86 % of control | [12] 92 % of control | [13] 100 % of control

CCc1nc(Cc2ccccc2)nc2c1nc(-c1ccccc1)n2Nc1ccccc1
inactive: dose: 100.0 mg/kg/injection, schedule: Q01DX001 (ip), vehicle: saline with Tween-80 92 % of control | dose: 200.0 mg/kg/injection, schedule: Q01DX001 (ip), vehicle: saline with Tween-80 98 % of control | dose: 400.0 mg/kg/injection, schedule: Q01DX001 (ip), vehicle: saline with Tween-80 92 % of control

[O-]c1nn(-c2ccccc2)n[n+]1-c1ccccc1
inactive: [14] 97 % of control | [15] 100 % of control | [16] 94 % of control

OC(c1cc(-c2ccccc2)nc2c1ccc1ccccc12)C1CCCCN1 (centres undefined)
inactive: [17] 101 % of control | [18] 97 % of control | [19] 100 % of control | [20] 100 % of control | [21] 107 % of control

O=C(c1ccccc1Cl)n1oc2ccccc2c1=O
inactive: [1] 97 % of control | [2] 110 % of control | [3] 106 % of control

O=C1CCSC(=S)N1c1ccc2c(c1)OCO2
inactive: dose: 50.0 mg/kg/injection, schedule: Q01DX009 (ip), vehicle: suspension in saline 105 % of control | dose: 100.0 mg/kg/injection, schedule: Q01DX009 (ip), vehicle: suspension in saline 90 % of control | dose: 200.0 mg/kg/injection, schedule: Q01DX009 (ip), vehicle: suspension in saline 98 % of control

CCCC(O)C(C(=O)OCC)C(=O)OCC (centres undefined)
inactive: [4] 95 % of control | [5] 95 % of control | [6] 94 % of control

Cc1nnc2sc(/C=C/c3ccccc3)nn12
inactive: [14] 101 % of control | [15] 102 % of control | [16] 101 % of control

COc1ccc(CSC(=S)Nc2ccc(Cl)c(Cl)c2)cc1
inactive: [22] 111 % of control | dose: 25.0 mg/kg/injection, schedule: Q01DX009 (ip), vehicle: Klucel (hydroxypropylcellulose) (HPC) 120 % of control | [23] 120 % of control and 121 % of control | [24] 111 % of control

C/C(=N\NC1=NCCN1)c1cnn(C2=NCCN2)c1C
inactive: dose: 60.0 mg/kg/injection, schedule: Q01DX005 (ip), vehicle: saline 116 % of control | dose: 120.0 mg/kg/injection, schedule: Q01DX005 (ip), vehicle: saline 108 % of control | dose: 240.0 mg/kg/injection, schedule: Q01DX005 (ip), vehicle: saline 118 % of control

CCn1c(=O)c2[nH]c(SC)nc2n(CC)c1=O
inactive: dose: 16.0 mg/kg/injection, schedule: Q01DX009 (ip), vehicle: Klucel (hydroxypropylcellulose) (HPC) 105 % of control | dose: 32.0 mg/kg/injection, schedule: Q01DX009 (ip), vehicle: Klucel (hydroxypropylcellulose) (HPC) 107 % of control | [23] 116 % of control | dose: 64.0 mg/kg/injection, schedule: Q01DX009 (ip), vehicle: Klucel (hydroxypropylcellulose) (HPC) 104 % of control | [24] 111 % of control | [25] 100 % of control

NC(=S)N/N=C1/CCCC/C1=N/O
inactive: [11] 100 % of control | [12] 100 % of control

CN(C)[Si](c1ccccc1)(c1ccccc1)N(C)C
inactive: [23] 102 % of control | [24] 102 % of control | [25] 106 % of control

O=C(Nc1ccccc1)OCC1CC1
inactive: [7] 99 % of control | [8] 115 % of control | [9] 96 % of control | [10] 89 % of control

CCN(CC)CCCC(Nc1c2ccc(Cl)cc2nc2ccc(OC)cc12)c1ccc(F)cc1 (centres undefined)
inactive: [17] 96 % of control | [18] 98 % of control | [19] 100 % of control and 107 % of control

COc1ccc(N=N/N=c2\sc3cc(OC)ccc3n2C)cc1
inactive: dose: 7.5 mg/kg/injection, schedule: Q01DX005 (ip), vehicle: saline with Tween-80 113 % of control | [26] 104 % of control | [27] 112 % of control and 117 % of control | [11] 104 % of control

CC(C)(C)N(N)Cc1ccccc1
inactive: [28] 99 % of control | [4] 104 % of control | [5] 104 % of control

CC/C(C)=N/SC(c1ccccc1)(c1ccccc1)c1ccccc1
inactive: dose: 100.0 mg/kg/injection, schedule: Q04DX002 (ip), vehicle: saline with Tween-80 101 % of control | dose: 200.0 mg/kg/injection, schedule: Q04DX002 (ip), vehicle: saline with Tween-80 91 % of control | dose: 400.0 mg/kg/injection, schedule: Q04DX002 (ip), vehicle: saline with Tween-80 89 % of control

COc1ccc(O)c(CN2CCN(Cc3cc(OC)ccc3O)CC2)c1
inactive: [26] 91 % of control | [27] 86 % of control

CS(=O)(=O)Cc1cc(-c2ccccc2)no1
inactive: [11] 100 % of control | [12] 99 % of control | [13] 100 % of control

CC(=O)OC1(C)CC1(C)C (centres undefined)
inactive: [19] 100 % of control | [20] 98 % of control | [21] 98 % of control

NNCCO
inactive: dose: 3.12 mg/kg/injection, schedule: Q01DX009 (ip), vehicle: saline with Tween-80 108 % of control | dose: 6.25 mg/kg/injection, schedule: Q01DX009 (ip), vehicle: saline with Tween-80 99 % of control and 100 % of control | dose: 12.5 mg/kg/injection, schedule: Q01DX009 (ip), vehicle: saline with Tween-80 99 % of control and 103 % of control | [29] 100 % of control and 104 % of control | [7] 100 % of control

NC(=NC(=O)c1ccccc1)N(CCc1ccccc1)CCc1ccccc1
inactive: [11] 104 % of control | [12] 100 % of control | [13] 109 % of control

O=C(O)c1c(Cl)n(Cc2ccc(Cl)cc2Cl)c2ccccc12
inactive: dose: 60.0 mg/kg/injection, schedule: Q01DX005 (ip), vehicle: Klucel (hydroxypropylcellulose) (HPC) 100 % of control | dose: 120.0 mg/kg/injection, schedule: Q01DX005 (ip), vehicle: Klucel (hydroxypropylcellulose) (HPC) 103 % of control and 93 % of control | dose: 240.0 mg/kg/injection, schedule: Q01DX005 (ip), vehicle: Klucel (hydroxypropylcellulose) (HPC) 104 % of control and 93 % of control

COc1ccc(C2NC(=O)NC2=O)cc1 (centres undefined)
inactive: [29] 100 % of control | [7] 91 % of control | [8] 93 % of control | [9] 94 % of control

CCOC(=O)C1C(=O)NN(/C=C2\C=CC=CC2=O)C1c1ccc([N+](=O)[O-])cc1 (centres undefined)
inactive: dose: 100.0 mg/kg/injection, schedule: Q04DX002 (ip), vehicle: saline 111 % of control | dose: 200.0 mg/kg/injection, schedule: Q04DX002 (ip), vehicle: saline 93 % of control | dose: 400.0 mg/kg/injection, schedule: Q04DX002 (ip), vehicle: saline 98 % of control

[Cl][Sb]([Cl])([Cl])([c]1ccccc1)[c]1ccccc1
inactive: dose: 6.25 mg/kg/injection, schedule: Q01DX009 (ip), vehicle: saline 101 % of control | dose: 12.5 mg/kg/injection, schedule: Q01DX009 (ip), vehicle: saline 98 % of control | [28] 91 % of control

C/C(=N/NC(=O)c1ccccc1)c1ccc(Cl)cc1Cl
inactive: [22] 90 % of control

CCOC(=O)CC(CSCP(=O)(OCC)OCC)C(=O)OCC (centres undefined)
inactive: [11] 105 % of control | [12] 94 % of control | [13] 100 % of control
